Holding throughout (type): cell-based
Test [1] deals with IL-4. The experiment in a line: TH2 cytokines: PBMC, PHA, IL-4. Conditions: 24 h, read-out: IL-4 (anti-inflammatory data, TH2 cytokine). The protocol:
(§1) Anti-inflammatory data for 3-hydroxypyridine-2-carbonyloxy-bis(3-chloro-4-methylphenyl)-borane
(§2) TH2 cytokines: PBMC, PHA@ […], 24 h

For test [2], the system named is IL-3. The experiment in a line: Regulatory cytokine: PBMC, PHA, IL-3. Particulars: 24 h, read-out: IL-3 (anti-inflammatory data, regulatory cytokine). The procedure: as §1
Regulatory cytokine: PBMC, PHA@ […], 24 h

For test [3], the system named is IL-6. As to the kind of experiment: Pro-inflammatory cytokines: THP-1 cells, LPS, IL-6. Conditions: Homo sapiens, 24 hr, read-out: IL-6 (anti-inflammatory data, pro-inflammatory cytokine). The procedure: as §1
(§3) Pro-inflammatory cytokines: THP-1 cells, LPS@ […], 24 hr

In test [4] the test system is IL-1β. The experiment in a line: Pro-inflammatory cytokines: THP-1 cells, LPS, IL-1β. Conditions: Homo sapiens, 24 hr, read-out: IL-1β (anti-inflammatory data, pro-inflammatory cytokine). The procedure: as §1, §3
In test [5] the test system is IFN-g. The experiment in a line: TH1 cytokines: PBMC, PHA, IFN-g. Conditions: 24 h, read-out: IFN-g (anti-inflammatory data, TH1 cytokine). The protocol:
as §1
(§4) TH1 cytokines: PBMC, PHA@ […], 24 h

Test [6] relates to TNF-α. The experiment in a line: Pro-inflammatory cytokines: THP-1 cells, LPS, TNF-α. Conditions: Homo sapiens, 24 hr, read-out: TNF-α (anti-inflammatory data, pro-inflammatory cytokine). The procedure: as §1, §3
Test [7] concerns IL-2. The experiment in a line: TH1 cytokines: PBMC, PHA, IL-2. Particulars: 24 h, read-out: IL-2 (anti-inflammatory data, TH1 cytokine). The protocol: as §1, §4
In test [8] the test system is IL-8. As to the kind of experiment: Pro-inflammatory cytokines: THP-1 cells, LPS, IL-8. Conditions: Homo sapiens, 24 hr, read-out: IL-8 (anti-inflammatory data, pro-inflammatory cytokine). The procedure:
as §1, §3

The test system of test [9] is IL-13. As to the kind of experiment: TH2 cytokines: PBMC, PHA, IL-13. Particulars: 24 h, read-out: IL-13 (anti-inflammatory data, TH2 cytokine). The protocol: as §1, §2
The subject of test [10] is IL-10. As to the kind of experiment: TH2 cytokines: PBMC, PHA, IL-10. Conditions: 24 h, read-out: IL-10 (anti-inflammatory data, TH2 cytokine). The procedure:
as §1, §2

The subject of test [11] is IL-5. The experiment in a line: TH2 cytokines: PBMC, PHA, IL-5. Particulars: 24 h, read-out: IL-5 (anti-inflammatory data, TH2 cytokine). The protocol:
as §1, §2

The text below walks through data of patent publication US20070286822A1, “Compounds for the Treatment of Periodontal Disease” (ANACOR PHARMACEUTICALS INC., priority 2006, published 2007).

SMILES strings stand for the structures. Where only a bound is given, the exact number is not on record here.

Consider `Cc1ccc(B(OC(=O)c2ncccc2O)c2ccc(C)c(Cl)c2)cc1Cl` [3-hydroxypyridine-2-carbonyloxy-bis(3-chloro-4-methylphenyl)-borane], for which the IC50 in test [1] was greater than 25 µM; in [2], greater than 10 µM; in [3], 5.3 µM; in test [4] it was 1 µM; in [5], greater than 25 µM; in test [6], 2.7 µM. The IC50 in test [7] is greater than 25 µM; in [8], 9.6 µM; in [9], greater than 10 µM; in test [10], 14.5 µM; in test [11], 9.3 µM.
